One substance from patent US20260132165A1, “MODIFIED NUCLEOSIDE ANALOGUE AND USE THEREOF, AND NUCLEOSIDE ANALOGUE-CONTAINING DOUBLE-STRANDED OLIGONUCLEOTIDE AND USE THEREOF” (RIGERNA THERAPEUTICS (BEIJING) CO., LTD., priority 2023, published 2026) can be followed below.

“And” between values parts separate entries of the source, which are not always exact repeats. Equal entries are not always repeated.

For one series, the system named is SOD1. As to the kind of experiment: Test Example 2: inhibitory activity of NM031 conjugated siRNA on SOD1 by intrathecal administration to mice. Format: in vivo, C57BL/6j mice. To be noted: D9. Here is the method:
6-8 Week-old C57BL/6j mice were randomly grouped into 4 groups by body weight. PBS group was dosed with siRNA-free PBS solution, RX899001 group was dosed with siRNA compound RX899001 without vector conjugation, RZ899001 group was dosed with siRNA RZ899001 (the sense strand with the Uhd conjugation at Position 4) prepared in Example 1, and RZ899008 was dosed with siRNA RZ899008 (the sense strand with the NM031 conjugation at Position 4) prepared in Example 1. Mices in each group were anesthetized with isoflurane. After anesthetization, lumbar region thereof was sprayed wet with 75% disinfecting alcohol. 10 μL (concentration […]) of siRNA drug containing PBS solvent was sucked with an insulin injection needle, the mouse lumbar region was pinched with the left-hand index finger and thumb, patella crest was propped against, and needle was held by the right hand. The needle was bent by forceps in advance, wherein the needle was first bent in the middle by 80° to 90°, then a front half part of the needle was bent in half, and the whole needle was bent in an are shape of about 60° to 90°. Mouse abdominal region was padded with an article with a thickness of about 2 cm. The needle was inserted from a joint of lumbar spines L5 and L6 of mice, and when inserting the needle, the hand was slightly inclined forwards to insert the needle. […] After completion of the injection, the needle was slowly withdrawn at uniform velocity. The administration dose to each mouse in RX899001 group, RZ899001 group and RZ899008 group was 800 μg, a total volume injected was 10 μL, and the PBS group was administered with the same volume of siRNA-free PBS solution. After the animals woke up, the animals were returned back to the animal feeding room and further fed. The day of administration was recorded as first day (D1), and the mice were sacrificed on ninth day (D9). Lumbar spine, thoracic spine and cerebellum were respectively taken and stored in the RNAlater.
RNA extraction: an appropriate amount of lumbar spine, thoracic spine and cerebellum samples were respectively taken out from the RNAlater, and smashed for 60 s in Tissuelyser type II full-automatic tissue homogenizer, and total RNAs of various tissue samples were extracted using the full-automatic nucleic acid extraction instrument and the nucleic acid extraction kit from Zhejiang Hanwei Science and Technology Co. Ltd. according to methods described in instructions. Reverse transcription reaction: 1 μg of the extracted total RNAs of various tissue samples were respectively taken, and configured into 20 μL of reverse transcription system according to a method described in kit instructions by using a reverse transcription kit (Reverse Transcription System, A3500) from Promega Corporation and selecting Oligo (dT)15 reverse transcription primers, and the reverse transcription reaction was completed. After the reaction was ended, 80 μL of RNase-Free water was added into the reverse transcription system to provide cDNA solution for Real-time PCR detection.
Real-time PCR detection: 20 μL of Real-time PCR reaction system per PCR detection well was configured according to a method described in kit instructions using SYBR™ Select Master Mix (Catalog number: 4472908) reagent from ABI company. Each detection system contained 5 μL of cDNA template obtained from the above reverse transcription reaction, 10 μL of SYBR™ Select Master Mix, 0.5 μL of 10 μM upstream primers, 0.5 μL of 10 μM downstream primers (see TABLE 5 for primer information), and 4 μL of RNase-Free H2O. The configured reaction system was subjected to Real-time PCR amplification on ABI StepOnePlus PCR instrument by a three-step method, wherein an amplification procedure was pre-denaturation at 95° C. for 10 min, then denaturation at 95° C. for 30 s, annealing at 60° C. for 30 s, and extension at 72° C. for 30 s; and processes of denaturation, annealing, and extension were repeated for 40 cycles. […]

Series [1] deals with target gene Superoxide Dismutase 1 (SOD1). As to the kind of experiment: Test Example 1: inhibitory activity of NM031 conjugated siRNA on SOD1 by lateral ventricular administration to mice (real-time PCR, ΔΔCt). Format: in vivo, C57BL/6j mice. Particulars: lateral ventricle, 200 μg per mouse, D5. An excerpt: In the context of the present disclosure, unless otherwise stated, Real-time PCR detection data in in vivo activity experiments involved in the present disclosure are all used for relative quantitative calculation of gene mRNA of interest in various test groups by a ΔΔCt method, and a calculation method is summarized as follows:
Taking the control group as reference, expression level of the gene mRNA of interest in the test group is normalized, and remaining expression level of the gene mRNA of interest in the […] is defined as 100%.
6-8 Week-old C57BL/6j mice were randomly grouped by body weight, 5 per group, 2 groups in total, i.e., PBS group (dosed with siRNA-free PBS solution) and RZ899008 group (dosed with siRNA RZ899008 (the sense strand with the NM031 conjugation at Position 4) prepared in Example 1). Mice in each group were anaesthetized by intraperitoneal injection of 5% chloral hydrate, and were immobilized with the cerebral stereotaxic apparatus after being anaesthetized. Head skin was cut, positioning coordinates of right lateral ventricle were found with the stereotaxic apparatus and position was marked on surface of skull, wherein the positioning coordinates of the lateral ventricle were as follows: in coordinate axes with Bregma point as an origin, ML (mediolateral, left and right of middle raphe, i.e., X-axis) value=1.2 mm, and AP (anteroposterior, bregma anterior and posterior, i.e., Y-axis) value=−0.58 mm, and DV (dorsoventral, down skull (cerebral dura mater) plane, i.e., Z-axis) value=2.2 mm. A dental electric drill was used to drill in the skull above a position of interest, and then sucked drug was injected into the lateral ventricle by a micro-dosing pump. An administration dose to each mouse in the RZ899008 group was 200 μg (dose being measured as siRNA, concentration of siRNA being 20 μg/μL, PBS buffer as a solvent), and a total injection volume was […]. PBS group was administered with the same volume of siRNA-free PBS solution. […] The day of administration was recorded as first day (D1), and the mice were sacrificed on the fifth day (D5). […]
Background: Real-time PCR tracks product formation cycle by cycle.

For the substance “RZ899008: siRNA, the sense strand with the NM031 conjugation at Position 4; SEQ ID NO: 3 / 2 (sense UUUNAAUCCUCACUCUAAA; antisense UUUAGAGUGAGGAUUAAAAUG; NM031 conjugate at sense position 4; modified_base 1..2 OTHER; 2'-methoxy and 5'-thiophosphate modified nucleotides; modified_base 3 OTHER; 2'-methoxy modified nucleotide; modified_base 4 OTHER; n is the synthetic nucleotide analog NM031 as described in the disclosure (e.g., NM031-1 ((1-[(2R,3R,4S,5R)-5-{[bis(4-methoxyphenyl)(phenyl)methoxy]methyl}-3,4-dihydroxyoxolan-2-yl]-3H-pyrimidin-2,4-dione)).; modified_base 5..6 OTHER; 2'-meth; modified_base 1 OTHER; 2'-methoxy and 5'-thiophosphate modified nucleotide; modified_base 2 OTHER; 2'-fluoro and 5'-thiophosphate modified nucleotide; …)”, the “Cerebellum Mean value of inhibition rate %” value in the series with SOD1 (cerebellum, intrathecal, 800 μg per mouse) stood at 67.72%; in series [1] (cerebellum), 40.08%. Besides, the “activity compared with control molecule RZ899001 and molecule RX899001 without vector conjugation” value with SOD1 (lumbar spine, thoracic spine and cerebellum, intrathecal 800 μg per mouse) was “superior”. The “Lumbar spine Mean value of inhibition rate %” value in the series on SOD1 (lumbar spine, intrathecal, 800 μg per mouse) is 80.09% and 78.99%. Besides, the “Thoracic spine Mean value of inhibition rate %” value in the series with SOD1 (thoracic spine, intrathecal, 800 μg per mouse) was 78.99% and 80.09%. For the same substance, the “Hippocampus Mean value of inhibition rate %” value in series [1] (administration-side hippocampus) is reported as 82.94%. The “Parietal cortex Mean value of inhibition rate %” value in series [1] (administration-side parietal cortex) was 73.57%.
